Patent US20070099983A1, “Aminocyclohexyl ether compounds and uses thereof” (Cardiome Pharma Corp., priority 2003, published 2007)

System: sustained AF maintained during continuous vagal nerve stimulation
Assay: Canine vagal-AF model: termination of sustained AF
Assay type: in vivo, dog
Settings: IV, anesthetized dogs
Method: St.-Georges et al., 1997). Dogs are ventilated mechanically with room air supplemented with oxygen via an endotracheal tube at 20 to 25 breaths/minute with a tidal volume obtained from a monogram. […] Catheters are inserted into the femoral artery for blood pressure recording and blood gas measurement, and into both femoral veins for drug administration and venous sampling. […] Body temperature is maintained at 37-40° C. with a heating blanket. The heart is exposed via a medial thoracotomy and a pericardial cradle is created. […] Drug effects to terminate sustained AF maintained during continuous vagal nerve stimulation are assessed. […] The vagal stimulation voltage is adjusted under control conditions, and then readjusted after each treatment to maintain the same bradycardic effect. […] Diastolic threshold and ERP are determined in duplicate and averaged to give a single value. […] The interval between the stimulus artefact and the peak of the local electrogram is measured as an index of conduction velocity. […] The stimulus voltage-heart rate relationship for vagal nerve stimulation is determined under control conditions in most experiments. […] After the termination of AF, the diastolic threshold and ERP of the atrium and ventricle are determined. […] Group data are expressed as the mean±SEM. […]

## O=C(NCC1CCCCN1)c1cc(OCC(F)(F)F)ccc1OCC(F)(F)F (centres unmarked) [Flecainide]
  Median dose required for termination of AF: 2.5 µmol/kg
mean±EM
  Mean dose required for termination of AF: 4 ± 2 µmol/kg
